From patent US20250009777A1 (priority 2021, published 2025)
Read-outs that look alike come from different tables or passages of the source.

Assays:
[1] = test system: SARS-CoV-2 Wuhan strain; assay: Antiviral activity against SARS-CoV-2 Wuhan strain, same manner as Example 1; format: cell-based; details: for SI: CC50 relative to EC50
[2] = Cytotoxicity (CC50) of structural analogs, Table 4; format: cell-based; details: cell line not stated
Procedure: Measurement of the antiviral activity was conducted in the same manner as Example 1. […] Among these compounds, compounds (A2), (A4) and (A6) had satisfactory differences in the ECso and CCso concentration levels, indicating particular promise as antiviral agents.

[3] = test system: DENV2; assay: Library screening for inhibition of cell death of flavivirus-infected cells; format: cell-based, dengue virus; details: compound library screening
Procedure: Using the compounds of a compound library based on nucleic acid compounds held by the Center for Research and Education on Drug Discovery, Hokkaido University, National University Corporation as test samples, screening was conducted for compounds having an effect in inhibiting cell death of cells infected with a flavivirus. DENV2 was used as the flavivirus.

[4] = test system: DENV1; assay: microbe, parasite or virus in culture; format: cell-based; details: Dengue virus, DENV1, BHK-21, 120 h
[5] = test system: DENV2; assay: microbe, parasite or virus in culture; format: cell-based; details: Dengue virus, DENV2, BHK-21, 96 h
[6] = test system: DENV3; assay: microbe, parasite or virus in culture; format: cell-based; details: Dengue virus, DENV3, BHK-21, 120 h
[7] = test system: DENV4; assay: microbe, parasite or virus in culture; format: cell-based; details: Dengue virus, DENV4, BHK-21, 120 h
[8] = test system: ZIKV; assay: microbe, parasite or virus in culture; format: cell-based; details: Zika virus, BHK-21, 72 h
[9] = test system: YFV; assay: microbe, parasite or virus in culture; format: cell-based; details: Yellow fever virus, BHK-21, 72 h
[10] = test system: JEV; assay: microbe, parasite or virus in culture; format: cell-based; details: Japanese encephalitis virus, BHK-21, 72 h
[11] = test system: WNV; assay: microbe, parasite or virus in culture; format: cell-based; details: West Nile virus, BHK-21, 72 h
[12] = test system: CHIKV; assay: microbe, parasite or virus in culture; format: cell-based; details: Chikungunya virus, BHK-21
[13] = test system: HCoV-229E; assay: microbe, parasite or virus in culture; format: cell-based; details: Human coronavirus 229E, MRC5
[14] = test system: HCoV-OC43; assay: microbe, parasite or virus in culture; format: cell-based, Human Coronavirus; details: Betacoronavirus 1, OC43, MRC5
[15] = test system: coronaviruses, flaviviruses and togaviruses; format: cell-based
[16] = test system: AG129 mouse-adapted DENV2; format: in vivo, mice; details: for Survival rate: death = bodyweight below 70%; for day post virus infection until which all of the mice survived: death = bodyweight below 80% of initial, FIG. 2A
[17] = in vitro; details: Syrian hamster
[18] = in vitro; details: human
[19] = Severe acute respiratory syndrome coronavirus 2

“2′,3′-O-isopropylidene-5′-O-isobutyryl-2-thiouridine [Compound A6]” gave an EC50 [1] of 3.93 µM, an SI [1] of 4.9 and a CC50 [2] of 19.4 µM.
In the case of “2′,3′-O-isopropylidene-5′-O-propynyl-2-thiouridine [Compound A5]”, the EC50 [1] is reported as 7.56 µM, the SI [1] is reported as 1.6 and the CC50 [2] is reported as 11.9 µM.
With `O=c1ccn([C@@H]2O[C@H](CO)[C@@H](O)[C@H]2O)c(=S)[nH]1` [2-thiouridine] the “antiviral activity (inhibiting cell death of infected cells)” value [3] was “exhibited antiviral activity”, the EC50 [4] was 2.4 µM and the EC50 [5] was 1.5 µM. For the same molecule, the EC50 [6] was 2 µM, the EC50 [7] was 1.7 µM and the EC50 [8] was 5 µM. For the same molecule, the EC50 [9] was 2.9 µM, the EC50 [10] was 4.8 µM and the EC50 [11] was 5.3 µM. It also gave an EC50 [12] of 8.2 µM, an EC50 [13] of 0.77 µM and an EC50 [14] of 13 µM. For the same molecule, the “relative viral RNA level” value [15] was “decreased”, the “survival rate for the virus-infected mice” value ([16]; 50 mg/kg (n=8) and 150 mg/kg (n=9) groups compared with vehicle, in words) was “increased in a dosage-dependent manner” and the Survival rate ([16]; 50 mg/kg oral twice per day, n = 8, day 0 post infection) was 100%. It also gave a Survival rate ([16]; 50 mg/kg oral twice per day, n = 8, day 1 post infection) of 100%, a Survival rate ([16]; 50 mg/kg oral twice per day, n = 8, day 2 post infection) of 100% and a Survival rate ([16]; 50 mg/kg oral twice per day, n = 8, day 3 post infection) of 100%. For the same molecule, the Survival rate ([16]; 50 mg/kg oral twice per day, n = 8, day 4 post infection) was 100%, the Survival rate ([16]; 50 mg/kg oral twice per day, n = 8, day 5 post infection) was 100% and the Survival rate ([16]; 50 mg/kg oral twice per day, n = 8, day 6 post infection) was 100%. It also gave a Survival rate ([16]; 50 mg/kg oral twice per day, n = 8, day 7 post infection) of 100%, a Survival rate ([16]; 50 mg/kg oral twice per day, n = 8, day 8 post infection) of 100% and a Survival rate ([16]; 50 mg/kg oral twice per day, n = 8, day 9 post infection) of 100%. The Survival rate ([16]; 50 mg/kg oral twice per day, n = 8, day 10 post infection) was 100%, the Survival rate ([16]; 50 mg/kg oral twice per day, n = 8, day 11 post infection) was 75% and the Survival rate ([16]; 50 mg/kg oral twice per day, n = 8, day 12 post infection) was 50%. The Survival rate ([16]; 50 mg/kg oral twice per day, n = 8, day 13 post infection) was 37.5%, the Survival rate ([16]; 50 mg/kg oral twice per day, n = 8, day 14 post infection) was 37.5% and the Survival rate ([16]; 50 mg/kg oral twice per day, n = 8, day 15 post infection) was 0%. For the same molecule, the “day post virus infection until which all of the mice survived” value ([16]; 50 mg/kg orally twice per day for 5 days, n=3) was 12 days, the Survival rate ([16]; 150 mg/kg oral twice per day, n = 9, day 0 post infection) was 100% and the Survival rate ([16]; 150 mg/kg oral twice per day, n = 9, day 1 post infection) was 100%. It also gave a Survival rate ([16]; 150 mg/kg oral twice per day, n = 9, day 2 post infection) of 100%, a Survival rate ([16]; 150 mg/kg oral twice per day, n = 9, day 3 post infection) of 100% and a Survival rate ([16]; 150 mg/kg oral twice per day, n = 9, day 4 post infection) of 100%. For the same molecule, the Survival rate ([16]; 150 mg/kg oral twice per day, n = 9, day 5 post infection) was 100%, the Survival rate ([16]; 150 mg/kg oral twice per day, n = 9, day 6 post infection) was 100% and the Survival rate ([16]; 150 mg/kg oral twice per day, n = 9, day 7 post infection) was 100%. The Survival rate ([16]; 150 mg/kg oral twice per day, n = 9, day 8 post infection) was 100%, the Survival rate ([16]; 150 mg/kg oral twice per day, n = 9, day 9 post infection) was 100% and the Survival rate ([16]; 150 mg/kg oral twice per day, n = 9, day 10 post infection) was 100%. It also gave a Survival rate ([16]; 150 mg/kg oral twice per day, n = 9, day 11 post infection) of 88.89%, a Survival rate ([16]; 150 mg/kg oral twice per day, n = 9, day 12 post infection) of 88.89% and a Survival rate ([16]; 150 mg/kg oral twice per day, n = 9, day 13 post infection) of 66.67%. It also gave a Survival rate ([16]; 150 mg/kg oral twice per day, n = 9, day 14 post infection) of 66.67%, a Survival rate ([16]; 150 mg/kg oral twice per day, n = 9, day 15 post infection) of 66.67% and a Survival rate ([16]; 150 mg/kg oral twice per day, n = 9, day 16 post infection) of 66.67%. For the same molecule, the “day post virus infection until which all of the mice survived” value ([16]; 150 mg/kg orally twice per day for 5 days, n=4) was 15 days, the CC50 [17] was greater than 50 µM and the CC50 [18] was greater than 50 µM.
Work on `O=c1ccn([C@@H]2O[C@H](CO)[C@@H](O)[C@H]2O)c(=[Se])[nH]1` [Compound A2, 2-selenouridine] yielded an SI [1] greater than 2.7, an EC50 [1, 19] of 7.37 µM and a CC50 [2] greater than 20 µM.
Work on `CSc1nc(=O)ccn1C1O[C@H](CO)[C@@H](O)[C@H]1O` (stereo partly drawn) [Compound A3] yielded an SI [1] of 1.2, an EC50 [1, 19] of 4.67 µM and a CC50 [2] of 5.48 µM.
Work on `O=c1ccn(C2O[C@H](CO)[C@@H](O)[C@H]2O)c(=NO)[nH]1` (stereo partly drawn) [Compound A4] yielded an SI [1] of 7.5, an EC50 [1, 19] of 0.81 µM and a CC50 [2] of 6.04 µM.
